Strand notation (5' to 3'): a small letter for the sugar, then the base; units joined by * are phosphorothioate-linked, units joined directly phosphodiester-linked; [ ] holds rarer units or linkages, { } end groups; capitals alone tell only the bases. e = 2'-O-(2-methoxyethyl) (MOE); l = locked nucleic acid (LNA); [5mC] = 5-methylcytosine; d = 2'-deoxy (DNA)

The data set relates to human ABCB11 mRNA. The data set is described as follows: ASO treatment of primary human hepatocytes (PHH), ABCB11 mRNA by RT-qPCR normalized to B2M. In kind it is cell-based. The settings on record: primary human hepatocytes, 5 μM ASO, normalized to untreated PHHs (UNT). In outline: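 ABCB11 mRNA was quantified by Taqman RT-qPCR relative to B2M and expressed as fold over untreated cells. Cells were cryopreserved primary human hepatocytes given ASO in Matrigel-supplemented medium 4 h after plating, at 1.25, 2.5, 5 or 10 μM (5 μM for screening), and harvested after 72 hrs.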
(Real-time PCR tracks product formation cycle by cycle.)
Consider “CO-7053 (antisense e[5mC]*e[5mC]*eT*e[5mC]*eA*e[5mC]*e[5mC]*eT*eT*eG*eG*eT*eT*e[5mC]*e[5mC]*e[5mC]*e[5mC]*e[5mC]*eT*eG)”, for which the “ABCB11 mRNA FC (5 μM ASO vs. UNT)” value came out at 1.145 fold change. As to “CO-7054 (antisense eA*e[5mC]*e[5mC]*e[5mC]*e[5mC]*d[5mC]*d[5mC]*dT*d[5mC]*dA*d[5mC]*d[5mC]*dT*dT*dG*eG*eT*eT*e[5mC]*e[5mC])”, the “ABCB11 mRNA FC (5 μM ASO vs. UNT)” value was found to be 1.323 fold change. Then “CO-7055 (antisense eT*e[5mC]*eA*e[5mC]*e[5mC]*e[5mC]*e[5mC]*e[5mC]*e[5mC]eT*e[5mC]*eA*e[5mC]*e[5mC]*eT*eT*eG*eG*eT*eT)”, with 1.498 fold change.

For the substance “CO-7056 (antisense eT*eG*e[5mC]*eT*e[5mC]*eA*e[5mC]*e[5mC]*e[5mC]*e[5mC]*e[5mC]*e[5mC]*eT*e[5mC]*eA*e[5mC]*e[5mC]*eT*eT*eG)”, the “ABCB11 mRNA FC (5 μM ASO vs. UNT)” value was 1.491 fold change. Then “CO-7057 (antisense eA*e[5mC]*eT*eG*e[5mC]*eT*e[5mC]*eA*e[5mC]*e[5mC]*e[5mC]*e[5mC]*e[5mC]*e[5mC]*eT*e[5mC]*eA*e[5mC]*e[5mC]*eT)”, with 1.145 fold change.

On to “CO-7058 (antisense eT*e[5mC]*eT*eG*eG*lA*dA*dA*lA*dT*dA*lA*dT*dG*l[5mC]*e[5mC]*eT*eT*eT*e[5mC])”, for which the “ABCB11 mRNA FC (5 μM ASO vs. UNT)” value stood at 1.052 fold change. Under “CO-7059 (eT*e[5mC]*eT*lG*eG*dA*dA*lA*dA*dT*dA*lA*dT*dG*d[5mC]*l[5mC]*eT*eT*eT*e[5mC]; antisense)” stands 1.023 fold change; under “CO-7060 (eT*e[5mC]*eT*eG*lG*dA*dA*dA*lA*dT*dA*dA*lT*dG*d[5mC]*e[5mC]*lT*eT*eT*e[5mC]; antisense)”, 1.17 fold change; under “CO-7061 (eT*e[5mC]*eT*lG*eG*lA*eA*lA*eA*lT*eA*lA*eT*lG*e[5mC]*l[5mC]*eT*lT*eT*e[5mC]; antisense)”, 1.261 fold change. Then “CO-7062 (eT*e[5mC]*lT*eG*lG*eA*lA*eA*lA*eT*lA*eA*lT*eG*l[5mC]*e[5mC]*lT*eT*eT*e[5mC]; antisense)”, with 1.218 fold change; and “CO-7063 (eT*e[5mC]*lT*eG*eG*lA*eA*eA*lA*eT*eA*lA*eT*eG*l[5mC]*e[5mC]*eT*lT*eT*e[5mC]; antisense)”, with 1.291 fold change. As to “CO-7064 (eT*e[5mC]*eT*eG*lG*eA*eA*eA*lA*eT*eA*eA*lT*eG*e[5mC]*e[5mC]*lT*eT*eT*e[5mC]; antisense)”, the “ABCB11 mRNA FC (5 μM ASO vs. UNT)” value is 1.017 fold change. As to “CO-7065 (eT*e[5mC]*eT*lG*eG*eA*eA*lA*eA*eT*eA*lA*eT*eG*e[5mC]*l[5mC]*eT*eT*eT*e[5mC]; antisense)”, the “ABCB11 mRNA FC (5 μM ASO vs. UNT)” value worked out at 1.262 fold change. Under “CO-7066 (eT*e[5mC]*eT*eG*eG*lA*eA*eA*eA*eT*lA*eA*eT*eG*e[5mC]*l[5mC]*eT*eT*eT*e[5mC]; antisense)” stands 1.2 fold change; under “CO-7067 (eT*e[5mC]*eT*eG*lG*eA*eA*eA*eA*lT*eA*eA*eT*eG*l[5mC]*e[5mC]*eT*eT*eT*e[5mC]; antisense)”, 1.081 fold change; under “CO-7068 (e[5mC]*eA*eT*eT*eT*lA*dG*dA*lG*dA*d[5mC]*lA*dA*dA*lG*eA*eA*eT*e[5mC]*eG; antisense)”, 1.077 fold change. Under “CO-7069 (e[5mC]*eA*eT*lT*eT*dA*dG*lA*dG*dA*d[5mC]*lA*dA*dA*dG*lA*eA*eT*e[5mC]*eG; antisense)” stands 1.011 fold change; under “CO-7070 (e[5mC]*eA*eT*eT*lT*dA*dG*dA*lG*dA*d[5mC]*dA*lA*dA*dG*eA*lA*eT*e[5mC]*eG; antisense)”, 1.044 fold change; under “CO-7088 (eA*e[5mC]*e[5mC]*e[5mC]*e[5mC]*l[5mC]*d[5mC]*dT*l[5mC]*dA*d[5mC]*l[5mC]*dT*dT*lG*eG*eT*eT*e[5mC]*e[5mC]; antisense)”, 1.177 fold change. With “CO-7089 (eA*e[5mC]*e[5mC]*l[5mC]*e[5mC]*d[5mC]*d[5mC]*lT*d[5mC]*dA*d[5mC]*l[5mC]*dT*dT*dG*lG*eT*eT*e[5mC]*e[5mC]; antisense)”, the “ABCB11 mRNA FC (5 μM ASO vs. UNT)” value is listed as 1.249 fold change. Then “CO-7090 (eA*e[5mC]*e[5mC]*e[5mC]*l[5mC]*d[5mC]*d[5mC]*dT*l[5mC]*dA*d[5mC]*d[5mC]*lT*dT*dG*eG*lT*eT*e[5mC]*e[5mC]; antisense)”, with 1.203 fold change. Under “CO-7091 (eA*e[5mC]*e[5mC]*l[5mC]*e[5mC]*l[5mC]*e[5mC]*lT*e[5mC]*lA*e[5mC]*l[5mC]*eT*lT*eG*lG*eT*lT*e[5mC]*e[5mC]; antisense)” stands 1.164 fold change.

Take “CO-7093 (eA*e[5mC]*l[5mC]*e[5mC]*e[5mC]*l[5mC]*e[5mC]*eT*l[5mC]*eA*e[5mC]*l[5mC]*eT*eT*lG*eG*eT*lT*e[5mC]*e[5mC]; antisense)”: the “ABCB11 mRNA FC (5 μM ASO vs. UNT)” value amounted to 1.269 fold change.

Consider “CO-7094 (eA*e[5mC]*e[5mC]*e[5mC]*l[5mC]*e[5mC]*e[5mC]*eT*l[5mC]*eA*e[5mC]e[5mC]*lT*eT*eG*eG*lT*eT*e[5mC]*e[5mC])”, for which the “ABCB11 mRNA FC (5 μM ASO vs. UNT)” value is on record as 0.993 fold change.

For the substance “CO-7095 (eA*e[5mC]*e[5mC]*l[5mC]*e[5mC]*e[5mC]*e[5mC]*lT*e[5mC]*eA*e[5mC]*l[5mC]*eT*eT*eG*lG*eT*eT*e[5mC]*e[5mC]; antisense)”, the “ABCB11 mRNA FC (5 μM ASO vs. UNT)” value is 0.925 fold change.

“CO-7096 (eA*e[5mC]*e[5mC]*e[5mC]*e[5mC]*l[5mC]*e[5mC]*eT*e[5mC]*eA*l[5mC]*e[5mC]*eT*eT*eG*lG*eT*eT*e[5mC]*e[5mC]; antisense)”: the “ABCB11 mRNA FC (5 μM ASO vs. UNT)” value worked out at 1.157 fold change. Under “CO-7097 (eA*e[5mC]*e[5mC]*e[5mC]*l[5mC]*e[5mC]*e[5mC]*eT*e[5mC]*lA*e[5mC]*e[5mC]*eT*eT*lG*eG*eT*eT*e[5mC]*e[5mC]; antisense)” stands 1.028 fold change; under “CO-7098 (eA*eT*e[5mC]eT*eG*eG*dA*dA*dA*dA*dT*dA*dA*dT*dG*d[5mC]*e[5mC]*eT*eT*eT*e[5mC]*eT)”, 1.04 fold change; under “CO-7099 (eA*eT*e[5mC]*eT*eG*eG*eA*eA*eA*eA*eT*eA*eA*eT*eG*e[5mC]*e[5mC]*eT*eT*eT*e[5mC]*eT; antisense)”, 0.882 fold change.

Turning to “CO-7100 (eA*eT*e[5mC]*eT*eG*dG*dA*dA*eA*dA*dT*dA*dA*eT*dG*d[5mC]*d[5mC]*eT*eT*eT*e[5mC]*eT; antisense)”, the “ABCB11 mRNA FC (5 μM ASO vs. UNT)” value was 1.406 fold change. Under “CO-7101 (eA*eT*e[5mC]*eT*eG*lG*dA*dA*lA*dA*dT*dA*dA*lT*dG*d[5mC]*l[5mC]*eT*eT*eT*e[5mC]*eT; antisense)” stands 1.165 fold change. Then “CO-7102 (eT*eA*eT*e[5mC]*eT*eG*eG*dA*dA*dA*dA*dT*dA*dA*dT*dG*d[5mC]*e[5mC]*eT*eT*eT*e[5mC]*eT*eA; antisense)”, with 1.068 fold change; and “CO-7103 (eT*eA*eT*e[5mC]*eT*eG*eG*eA*eA*eA*eA*eT*eA*eA*eT*eG*e[5mC]*e[5mC]*eT*eT*eT*e[5mC]*eT*eA; antisense)”, with 1.006 fold change; and “CO-7104 (eT*eA*eT*e[5mC]*eT*dG*dG*eA*dA*dA*eA*dT*dA*eA*dT*dG*e[5mC]*d[5mC]*dT*eT*eT*e[5mC]*eT*eA; antisense)”, with 0.918 fold change. Under “CO-7105 (eT*eA*eT*e[5mC]*eT*dG*dG*lA*dA*dA*lA*dT*dA*lA*dT*dG*l[5mC]*d[5mC]*dT*eT*eT*e[5mC]*eT*eA; antisense)” stands 1.002 fold change; under “CO-7106 (eA*e[5mC]*eA*eT*eT*eT*dA*dG*dA*dG*dA*d[5mC]*dA*dA*dA*dG*eA*eA*eT*e[5mC]*eG*e[5mC]; antisense)”, 1.246 fold change; under “CO-7107 (eA*e[5mC]*eA*eT*eT*eT*eA*eG*eA*eG*eA*e[5mC]*eA*eA*eA*eG*eA*eA*eT*e[5mC]*eG*e[5mC]; antisense)”, 1.148 fold change. “CO-7108 (eA*e[5mC]*eA*eT*eT*dT*dA*dG*eA*dG*dA*d[5mC]*dA*eA*dA*dG*dA*eA*eT*e[5mC]*eG*e[5mC]; antisense)”: the “ABCB11 mRNA FC (5 μM ASO vs. UNT)” value amounted to 1.101 fold change. Then “CO-7109 (eA*e[5mC]*eA*eT*eT*lT*dA*dG*lA*dG*dA*d[5mC]*dA*lA*dA*dG*lA*eA*eT*e[5mC]*eG*e[5mC]; antisense)”, with 1.043 fold change; and “CO-7110 (eT*eA*e[5mC]*eA*eT*eT*eT*dA*dG*dA*dG*dA*d[5mC]*dA*dA*dA*dG*eA*eA*eT*e[5mC]*eG*e[5mC]*eT; antisense)”, with 1.035 fold change; and “CO-7111 (TACATTTAGAGACAAAGAATCGCT; fully MOE, PS/PO backbone, 5-methylcytosine; listed as RNA; modified_base 1..24: mod_base = OTHER; note = Phosphorothioate linkage; note = 2'-O-(2-methoxyethyl) ribonucleotide; modified_base 3: mod_base = OTHER; note = 5-methyl cytidine; modified_base 13: mod_base)”, with 1.027 fold change. For “CO-7112 (eT*eA*e[5mC]*eA*eT*dT*dT*eA*dG*dA*eG*dA*d[5mC]*eA*dA*dA*eG*dA*dA*eT*e[5mC]*eG*e[5mC]*eT; antisense)”, the “ABCB11 mRNA FC (5 μM ASO vs. UNT)” value came to 0.98 fold change.
